Results as given in PMC8952364, “Polyphenols as Inhibitors of Antibiotic Resistant Bacteria—Mechanisms Underlying Rutin Interference with Bacterial Virulence” (Pharmaceuticals, 2022).

Tested on: P. aeruginosa IBRS P001
Assay: Bacterial adhesion to HaCaT cells
Assay type: cell-based, Pseudomonas aeruginosa
Protocol: HaCaT cells were grown until confluence in 24-well plates with an adhesive bottom. The medium was removed and DMEM without FBS containing the rutin (MIC and 0.5 MIC) was added. The samples were incubated at 37 °C for 15 min, and bacteria (P. aeruginosa IBRS P001 and MRSA IBRS MRSA 011) were added. After incubation at 37 °C for 1 h, the cells were washed three times with DMEM without FBS and lyzed with 1 mL of 1% (v/v) Tween-20 (SigmaAldrich, Germany) at 37 °C for 30 min. Afterwards, dilutions of the bacterial suspension in each well were made and seeded on Plate Count Agar plates. The number of CFU was determined after incubation at 37 °C for 18 h, and the percentage of adhered bacterial cells was calculated following the equation:% (adhesion relative to the control) = 100 × CFU (treated)/CFU (control)
With CFU (treated) representing the number of CFUs after the treatment of cells with rutin and CFU (control) representing the number of bacterial CFUs in the untreated sample. The solvent treated sample was used as the control.

Structure (SMILES): C[C@@H]1O[C@@H](OC[C@H]2O[C@@H](Oc3c(-c4ccc(O)c(O)c4)oc4cc(O)cc(O)c4c3=O)[C@H](O)[C@@H](O)[C@@H]2O)[C@H](O)[C@H](O)[C@H]1O [Rutin, rutin]
- reduction of CFU adhered to human keratinocytes (0.5 MIC, 0.25 mg/mL): 25%
- reduction of CFU adhered to human keratinocytes (rutin MIC): 51%
